Source: US8541460B2, “PDK-1/Akt signaling inhibitors” (The Ohio State University, priority 2003, dated 2013)

Experiments:
[1] = tested on: SF-295; test: NCI DTP cell line screen (SRB), CNS Cancer; type: cell-based
Description: (§1) Screening of compounds 70 and 71 against several cancer cell lines The human tumor cell lines of the cancer screening panel are grown in RPMI 1640 medium containing 5% fetal bovine serum and 2 mM L-glutamine. For a typical screening experiment, cells are inoculated into 96 well microtiter plates in 100 μL at plating densities ranging from 5,000 to 40,000 cells/well depending on the doubling time of individual cell lines. After cell inoculation, the microtiter plates are incubated at 37° C., 5% CO2, 95% air and 100% relative humidity for 24 h prior to addition of experimental drugs.
(§2) After 24 h, two plates of each cell line are fixed in situ with TCA, to represent a measurement of the cell population for each cell line at the time of drug addition (Tz). Experimental drugs are solubilized in dimethyl sulfoxide at 400-fold the desired final maximum test concentration and stored frozen prior to use. At the time of drug addition, an aliquot of frozen concentrate is thawed and diluted to twice the desired final maximum test concentration with complete medium containing 50 μg/ml gentamicin. Additional four, 10-fold or ½ log serial dilutions are made to provide a total of five drug concentrations plus control. Aliquots of 100 μl of these different drug dilutions are added to the appropriate microtiter wells already containing 100 μl of medium, resulting in the required final drug concentrations.
(§3) Following drug addition, the plates are incubated for an additional 48 h at 37° C., 5% CO2, 95% air, and 100% relative humidity. For adherent cells, the assay is terminated by the addition of cold TCA. Cells are fixed in situ by the gentle addition of 50 μl of cold 50% (w/v) TCA (final concentration, 10% TCA) and incubated for 60 minutes at 4° C. The supernatant is discarded, and the plates are washed five times with tap water and air dried. Sulforhodamine B (SRB) solution (100 μl) at 0.4% (w/v) in 1% acetic acid is added to each well, and plates are incubated for 10 minutes at room temperature. After staining, unbound dye is removed by washing five times with 1% acetic acid and the plates are air dried. Bound stain is subsequently solubilized with 10 mM trizma base, and the absorbance is read on an automated plate reader at a wavelength of 515 nm. For suspension cells, the methodology is the same except that the assay is terminated by fixing settled cells at the bottom of the wells by gently adding 50 μl of 80% TCA (final concentration, 16% TCA). Using the seven absorbance measurements [time zero, (Tz), control growth, (C), and test growth in the presence of drug at the five concentration levels (Ti)], the percentage growth is calculated at each of the drug concentrations levels. Percentage growth inhibition is calculated as: [(Ti−Tz)/(C−Tz)]×100 for concentrations for which Ti>/=Tz [(Ti−Tz)/Tz]×100 for concentrations for which Ti<Tz
(§4) Three dose response parameters are calculated for each experimental agent. […] The drug concentration resulting in total growth inhibition (TGI) is calculated from Ti=Tz. […] Values are calculated for each of these three parameters if the level of activity is reached; however, if the effect is not reached or is exceeded, the value for that parameter is expressed as greater or less than the maximum or minimum concentration tested.
(§5) The methods described were used to test compounds 70 and 71 on a panel of sixty cell lines under a screening service provided by the Developmental Therapeutics Program at the National Institutes of Health. Shown in FIG. 1C are 1, RPMI-8226 leukemia cells; 2; NCI-H322M non-small cell lung cancer cells; 3, HT29 colon cancer cells; 4, U251 CNS cancer cells; 5, SK-MEL-28 melanoma cancer cells; 6, SK-OV-3 ovarian cancer cells; 7, RXF 393 renal cancer cells; 8, PC-3 prostate cancer cells; 9, MDA-MB-231 breast cancer cells.

[2] = tested on: SF-268; test: NCI DTP cell line screen (SRB), CNS Cancer; type: cell-based
Description: as §1, §2, §3, §4, §5

[3] = tested on: U251; test: NCI DTP cell line screen (SRB), CNS Cancer; type: cell-based, human
Description: as §1, §2, §3, §4, §5

[4] = tested on: SNB-19; test: NCI DTP cell line screen (SRB), CNS Cancer; type: cell-based, human
Description: as §1, §2, §3, §4, §5

[5] = tested on: PC-3 cells; test: PC-3 cell viability analysis (MTT); type: cell-based, human; conditions: inducing apoptotic death in PC-3 cells / PC-3 cell viability; read-out: IC50 PC-3
Description: Cell Culture PC-3 (p53−/−) human androgen-nonresponsive prostate cancer cells were purchased from the American […] (Manassas, Va.). Cells were cultured in RPMI 1640 medium (Gibco, Grand Island, N.Y.) supplemented with 10% fetal bovine serum (FBS; Gibco) at 37° C. in a humidified incubator containing 5% CO2.
Cell viability analysis The effect of 4-[5-(4-methylphenyl)-3-(trifluoromethyl)-1H-pyrazol-1-yl]benzenesulfonamide and its derivatives on PC-3 cell viability was assessed by using the MTT {[3-(4,5-dimethylthiazol-2-yl)-2,5-diphenyl-2H-tetrazolium bromide]} assay in six replicates. Cells were grown in 10% FBS-supplemented RPMI 1640 medium in 96-well, flat bottomed plates for 24 h, and were exposed to various concentrations of compounds 1-36 dissolved in DMSO (final concentration≦0.1%) in 1% serum-containing RPMI 1640 medium for different time intervals. Controls received DMSO vehicle at a concentration equal to that in drug-treated cells. The medium was removed, replaced by 200 μl of 0.5 mg/ml of MTT in 10% FBS-containing RPMI-1640 medium, and cells were incubated in the CO2 incubator at 37° C. for 2 h. Supernatants were removed from the wells, and the reduced MTT dye was solubilized in 200 μL/well DMSO. Absorbance at 570 nm was determined on a plate reader.

## NCC(=O)Nc1ccc(-n2nc(C(F)(F)F)cc2-c2ccc3c(ccc4ccccc43)c2)cc1 [Compound 70, 2-Amino-N-{4-[5-(2-phenanthrenyl)-3-(trifluoromethyl)-1H-pyrazol-1-yl]-phenyl}-acetamide]
[1]
  TGI: 3.71E−06
[1]; Log10 Concentration −4.0
  Percent Growth: −32%
[1]; Log10 Concentration −5.0
  Percent Growth: −47%
[1]; Log10 Concentration −6.0
  Percent Growth: 62%
[1]; Log10 Concentration −7.0
  Percent Growth: 96%
[1]; Log10 Concentration −8.0
  Percent Growth: 94%
[2]
  TGI: 4.16E−06
[2]; Log10 Concentration −4.0
  Percent Growth: 26%
[2]; Log10 Concentration −5.0
  Percent Growth: −33%
[2]; Log10 Concentration −6.0
  Percent Growth: 54%
[2]; Log10 Concentration −7.0
  Percent Growth: 72%
[2]; Log10 Concentration −8.0
  Percent Growth: 84%
[3]
  TGI: 2.64E−06
[3]; Log10 Concentration −4.0
  Percent Growth: −18%
[3]; Log10 Concentration −5.0
  Percent Growth: −63%
[3]; Log10 Concentration −6.0
  Percent Growth: 46%
[3]; Log10 Concentration −7.0
  Percent Growth: 82%
[3]; Log10 Concentration −8.0
  Percent Growth: 100%
[4]
  TGI: 3.15E−06
[4]; Log10 Concentration −4.0
  Percent Growth: −39%
[4]; Log10 Concentration −5.0
  Percent Growth: −59%
[4]; Log10 Concentration −6.0
  Percent Growth: 59%
[4]; Log10 Concentration −7.0
  Percent Growth: 94%
[4]; Log10 Concentration −8.0
  Percent Growth: 87%

## N=C(N)Nc1ccc(-n2nc(C(F)(F)F)cc2-c2ccc3c(ccc4ccccc43)c2)cc1 [Compound 71, 4-[5-(2-Phenanthrenyl)-3-(trifluoromethyl)-1H-pyrazol-1-yl]-phenyl-guanidine]
[5]
  IC50: 3 µM
